Experimental data published in patent publication US11440923B2, “Substituted macrocyclic indole derivatives” (Bayer Aktiengesellschaft, priority 2017, dated 2022).

Columns and labels:
[1] = target: MCL1 protein / biotinylated BIM BH3 peptide in RKO cells (Homo sapiens (Human), UniProt Q07820); test: PIxEL: protein-protein interaction in permeabilized cells by ELISA (Assay 5); assay type: cell-based; details: PIxEL IC50 (median)
Method in brief: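 Digitonin (0.002%)-permeabilized RKO cells in MEB buffer pH 7.5 were treated with compound (3-fold series, top 30 μM) plus 0.2 μM biotin-BIM BH3 peptide for 1 h at room temperature. Lysates were captured on anti-MCL1 ELISA plates and bound peptide read by streptavidin-HRP luminescence. IC50 came from signal normalized to no-compound and no-cell controls.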

MCL-1 = MCL-1 (Homo sapiens (Human), UniProt Q07820, K194A/K197A/R201A); test: Protein-protein interaction assay MCL-1/Noxa BH3 peptide (MCL-1 assay, TR-FRET); assay type: binding; details: MCL-1 Assay IC50 (median)
Method in brief: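 Competition TR-FRET with MBP-MCL-1 (aa 173-321) at 1 nM final and biotinylated Noxa BH3 peptide, pH 7 Tris buffer. Compounds pre-incubated 10 min at 22° C., then 1 h at 22° C. and overnight at 4° C. 665/620 nm ratio normalized to DMSO; IC50 from 4-parameter fit.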

Chain of MCL1 protein / biotinylated BIM BH3 peptide in RKO cells (Q07820 whole entry): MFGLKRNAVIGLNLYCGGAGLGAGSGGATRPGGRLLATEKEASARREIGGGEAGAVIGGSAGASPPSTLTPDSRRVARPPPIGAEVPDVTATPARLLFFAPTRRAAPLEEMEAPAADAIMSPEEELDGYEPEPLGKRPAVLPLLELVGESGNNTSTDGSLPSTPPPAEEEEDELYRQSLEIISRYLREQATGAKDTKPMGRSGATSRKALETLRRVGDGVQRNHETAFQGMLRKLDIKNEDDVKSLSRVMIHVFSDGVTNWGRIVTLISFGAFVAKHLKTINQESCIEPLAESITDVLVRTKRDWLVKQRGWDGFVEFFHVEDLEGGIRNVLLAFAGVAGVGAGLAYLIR
Chain of MCL-1 (Q07820 whole entry, looked up, stated change not applied, the tested form may be a part): as the sequence (Q07820 whole entry) above

Row | Compound | IC50 [1] | IC50 (MCL-1)
1 | Cc1c2c(nn1C)C(CCO)OCCCCn1c(C(=O)O)c(CCCOc3cccc4ccccc34)c3ccc(Cl)c-2c31 (racemic) [Example 26, (rac)-4-chloro-15-(2-hydroxyethyl)-2,3-dimethyl-7-{3-[(naphthalen-1-yl)oxy]propyl}-2,10,11,12,13,15-hexahydropyrazolo[4′,3′:9,10][1,6]oxazacycloundecino[8,7,6-hi]indole-8-carboxylic Acid] | 1250 nM | 1.1 nM
2 | Cc1c2c(nn1C)C(CCN1CCOCC1)OCCCCn1c(C(=O)O)c(CCCOc3cccc4ccccc34)c3ccc(Cl)c-2c31 (single isomer, unassigned; enantiomer 2) [Example 15, 4-chloro-2,3-dimethyl-15-[2-(morpholin-4-yl)ethyl]-7-{3-[(naphthalen-1-yl)oxy]propyl}-2,10,11,12,13,15-hexahydropyrazolo[4′,3′:9,10][1,6]oxazacycloundecino[8,7,6-hi]indole-8-carboxylic Acid (Enantiomer 2)] | 12500 nM | 65 nM

Other lines, results leading:

Row | IC50 [1] | IC50 (MCL-1) | Compound
3 | 190 nM | 2.7 nM | CCc1c2c(nn1C)C(c1ccccc1)OCCCCn1c(C(=O)O)c(CCCOc3cccc4cc(F)ccc34)c3ccc(Cl)c-2c31 (racemic) [Example 59, (rac)-4-chloro-3-ethyl-7-{3-[(6-fluoronaphthalen-1-yl)oxy]propyl}-2-methyl-(15-rac)-phenyl-2,10,11,12,13,15-hexahydropyrazolo[4′,3′:9,10][1,6]oxazacycloundecino[8,7,6-hi]indole-8-carboxylic Acid]
4 | 1960 nM | 3.8 nM | CCc1c2c(nn1C)C(C(F)(F)F)OCCCCn1c(C(=O)O)c(CCCOc3cccc4ccccc34)c3ccc(Cl)c-2c31 (racemic) [Example 27, (rac)-4-Chloro-3-ethyl-2-methyl-7-{3-[(naphthalen-1-yl)oxy]propyl}-15-(trifluoromethyl)-2,10,11,12,13,15-hexahydropyrazolo[4′,3′:9,10][1,6]oxazacycloundecino[8,7,6-hi]indole-8-carboxylic Acid]
5 | 59.9 nM | 1.4 nM | CCc1c2c(nn1C)C1CCCCN1CCCCn1c(C(=O)O)c(CCCOc3cccc4ccccc34)c3ccc(Cl)c-2c31 (racemic) [Example 102, (rac)-18-chloro-1-ethyl-2-methyl-15-[3-(1-naphthyloxy)propyl]-2,3b,4,5,6,7,9,10,11,12-decahydropyrazolo[3′,4′:8,9]pyrido[1′,2′:6,7][1,6]diazacycloundecino[10,11,1-hi]indole-14-carboxylic Acid]
